Structures can show the parent of a compound that is named as a salt.
What was measured:
[1] = system: homocysteine synthesis; assay: Measurement of homocysteine synthesis inhibitory activity in vivo (methionine-loaded mouse, plasma homocysteine); conditions: dose of 10 mg/kg, oral, BALB/c mouse; methionine water 1 hr later; plasma 30 min after; read-out: activity (homocysteine synthesis inhibitory rate)
Protocol: A sample was orally administered to BALB/c mouse and, 1 hr later, methionine water (50 g/L) was orally administered at a proportion of 10 ml/kg. 30 min later, blood samples were collected with heparin from the abdominal vein and plasma was obtained. The plasma homocysteine concentration was measured by treating the plasma with tributylphosphine, removing protein with 10% trichloroacetic acid (TCA), fluorescent labeling the supernatant with 4-fluoro-7-sulfobenzofurazan ammonium salt (SBD-F) under alkali conditions, and quantifying by HPLC. The homocysteine synthesis inhibitory rate of the sample was determined with the difference in the homocysteine value between methionine water-loaded animal and methionine water-unloaded animal as 100%. The detailed conditions of HPLC were as follows.
column used: Wakopak^R HandyODS 150*4.6 mm (Wako Pure Chemical Industries, Ltd.) elution condition: 1.0 ml/min elution solvent: 0.1M phosphate buffer (pH 6.0) 2% methanol wavelength: ex 385 nm em 515 nm

[2] = molecular target: T1, Human-recombinant-S-Adenosyl-L-Homocysteine Hydrolase (Homo sapiens, UniProt P23526); assay: Measurement of enzyme inhibitory activity (hydrolysis of S-Adenosyl-L-Homocysteine, HPLC); format: biochemical; conditions: S-Adenosyl-L-Homocysteine 10 μM, pH 7.2, 37° C., 15 min
T1 construct: purchased Diazyme Laboratories
T1 sequence (P23526 whole entry): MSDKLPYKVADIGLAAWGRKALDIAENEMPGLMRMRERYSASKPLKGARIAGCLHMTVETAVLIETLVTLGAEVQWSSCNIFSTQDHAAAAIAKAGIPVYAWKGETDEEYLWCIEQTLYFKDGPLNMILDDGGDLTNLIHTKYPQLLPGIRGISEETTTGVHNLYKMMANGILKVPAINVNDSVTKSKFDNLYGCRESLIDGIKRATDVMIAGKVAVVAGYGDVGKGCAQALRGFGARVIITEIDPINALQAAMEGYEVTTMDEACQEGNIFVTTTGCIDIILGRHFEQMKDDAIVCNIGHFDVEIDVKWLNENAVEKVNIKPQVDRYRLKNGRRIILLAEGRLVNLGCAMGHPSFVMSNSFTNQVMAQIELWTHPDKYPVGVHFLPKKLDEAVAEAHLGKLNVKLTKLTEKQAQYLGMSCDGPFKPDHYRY
Protocol: The enzyme inhibitory activity of the compounds of the Examples was measured using the hydrolysis activity of S-Adenosyl-L-Homocysteine as an index. The measurement method was modification of the method of Henry H. Richards et al. (J. Biol. Chem. 253, 4476-4480, 1978). That is, S-Adenosyl-L-Homocysteine (10 μM) and Adenosine Deaminase (Roche) (4 units) were added to 50 mM phosphate buffer (pH 7.2, containing 1 mM EDTA) with the total amount being 200 μl, and to the solution were added a test substance and then Human-recombinant-S-Adenosyl-L-Homocysteine Hydrolase (50 ng, Diazyme Laboratories) to start the reaction, and the mixture was incubated at 37° C. for 15 min. The reaction was quenched by the addition of 1N aqueous perchloric solution (20 μl), and the mixture was centrifuged under the conditions of 10000 rpm, 5 min, 4° C. The supernatant was collected, and the amount of S-Adenosyl-L-Homocysteine after the reaction was quantified by HPLC. The column used was a reversed-phase column. The detailed conditions of HPLC were as follows.
column used: Wakopak^R HandyODS 150*4.6 mm (Wako Pure Chemical Industries, Ltd.) elution condition: 1.0 ml/min elution solvent: 0.1M acetate buffer (pH 4.0) containing 10 mM 1-heptanesulfonic acid containing 4% acetonitrile wavelength: 258 nm (UV) The inhibitory rate was determined with the amount of decrease in S-Adenosyl-L-Homocysteine before and after the reaction without using the test substance as 100%.
Inhibitory rate (%)={(amount of decrease of S-Adenosyl-L-Homocysteine in the presence of test substance)/(amount of decrease of S-Adenosyl-L-Homocysteine in the absence of test substance)}×100

Row | IC50 [2] | SMILES | inhibition in vivo at 10 mg/kg [1]
1 | 68 nM | Cc1ccc(C#N)cc1N(CC(=O)NCCNC(C)C)CC(=O)N(C)N1Cc2ccccc2C1 [Example 1, N^2-(5-cyano-2-methylphenyl)-N^2-{2-[1,3-dihydro-2H-isoindol-2-yl(methyl)amino]-2-oxoethyl}-N^1-[2-(isopropylamino)ethyl]glycinamide dihydrochloride] | ≥ 40%
2 | 92 nM | CCNCCNC(=O)CN(CC(=O)N(C)N1Cc2ccccc2C1)c1cc(C#N)ccc1C [Example 2, N^2-(5-cyano-2-methylphenyl)-N^2-{2-[1,3-dihydro-2H-isoindol-2-yl(methyl)amino]-2-oxoethyl}-N^1-[2-(ethylamino)ethyl]glycinamide dihydrochloride] | ≥ 40%
3 | 89 nM | Cc1nc(-c2ccc(C)c(N(CC(=O)NCCNC(C)C)CC(=O)N(C)N3Cc4ccc(F)cc4C3)c2)no1 [Example 21, N^2-{2-[(5-fluoro-1,3-dihydro-2H-isoindol-2-yl)(methyl)amino]-2-oxoethyl}-N^2-[2-methyl-5-(5-methyl-1,2,4-oxadiazol-3-yl)phenyl]-N^1-[2-(isopropylamino)ethyl]glycinamide] | ≥ 40%
4 | 103 nM | Cc1nc(-c2ccc(N(CC(=O)NCCNC(C)C)CC(=O)N(C)N3Cc4ccccc4C3)c(C)c2)no1 [Example 64, N^2-{2-[1,3-dihydro-2H-isoindol-2-yl(methyl)amino]-2-oxoethyl}-N^2-[2-methyl-4-(5-methyl-1,2,4-oxadiazol-3-yl)phenyl]-N^1-[2-(isopropylamino)ethyl]glycinamide] | ≥ 40%
5 | 37 nM | CCNCCNC(=O)CN(CC(=O)N(C)N1Cc2ccccc2C1)c1ccc(-c2ccc(C(N)=O)cn2)cc1C [Example 301, N^2-{4-[5-(aminocarbonyl)pyridin-2-yl]-2-methylphenyl}-N^2-{2-[1,3-dihydro-2H-isoindol-2-yl(methyl)amino]-2-oxoethyl}-N^1-[2-(ethylamino)ethyl]glycinamide dihydrochloride] | 
6 | 41 nM | CCNCCNC(=O)CN(CC(=O)N(C)N1Cc2ccccc2C1)c1ccc(-n2cc(C(N)=O)cn2)cc1C [Example 303, N^2-{4-[4-(aminocarbonyl)-1H-pyrazol-1-yl]-2-methylphenyl}-N^2-{2-[1,3-dihydro-2H-isoindol-2-yl(methyl)amino]-2-oxoethyl}-N^1-[2-(ethylamino)ethyl]glycinamide dihydrochloride] | 
7 | 23 nM | CCNCCNC(=O)CN(CC(=O)N(C)N1Cc2ccccc2C1)c1ccc(-c2nc(C(N)=O)co2)cc1C [Example 309, N^2-{4-[4-(aminocarbonyl)-1,3-oxazol-2-yl]-2-methylphenyl}-N^2-{2-[1,3-dihydro-2H-isoindol-2-yl(methyl)amino]-2-oxoethyl}-N^1-[2-(ethylamino)ethyl]glycinamide dihydrochloride] | 
8 | 150 nM | Cc1cc2onc(C)c2cc1N(CC(=O)NC[C@@H]1CCCN1)CC(=O)N(C)N1Cc2ccccc2C1 [Example 328, N^2-{2-[1,3-dihydro-2H-isoindol-2-yl(methyl)amino]-2-oxoethyl}-N^2-(3,6-dimethyl-1,2-benzisoxazol-5-yl)-N^1-[(2S)-pyrrolidin-2-ylmethyl]glycinamide dihydrochloride] | 

Further lines, the molecule ahead of its results:

Row | SMILES | IC50 [2] | inhibition in vivo at 10 mg/kg [1]
9 | CCNCCNC(=O)CN(CC(=O)N(C)N1Cc2ccccc2C1)c1cc(C(C)=O)ccc1C [57 (2HCl salt)] |  | ≥ 40%
10 | CCNCCNC(=O)CN(CC(=O)N(C)N1Cc2ccc(OC)cc2C1)c1cc(-c2noc(C)n2)ccc1C [Example 24, N^2-{2-[(5-methoxy-1,3-dihydro-2H-isoindol-2-yl)(methyl)amino]-2-oxoethyl}-N^2-[2-methyl-5-(5-methyl-1,2,4-oxadiazol-3-yl)phenyl]-N^1-[2-(ethylamino)ethyl]glycinamide] | 46 nM | 20 to 40%
11 | Cc1nnc(-c2ccc(C)c(N(CC(=O)NCCNC(C)C)CC(=O)N(C)N3Cc4ccccc4C3)c2)s1 [Example 105, N^2-{2-[1,3-dihydro-2H-isoindol-2-yl(methyl)amino]-2-oxoethyl}-N^2-[2-methyl-5-(5-methyl-1,3,4-thiadiazol-2-yl)phenyl]-N^1-[2-(isopropylamino)ethyl]glycinamide dihydrochloride] |  | 20 to 40%
12 | CCNCCNC(=O)CN(CC(=O)N(C)N1Cc2ccccc2C1)c1ccc(-c2cnn(C)c2)cc1C [Example 136, N^2-{2-[1,3-dihydro-2H-isoindol-2-yl(methyl)amino]-2-oxoethyl}-N^2-[2-methyl-4-(1-methyl-1H-pyrazol-4-yl)phenyl]-N^1-[2-(ethylamino)ethyl]glycinamide trihydrochloride] |  | ≥ 40%
13 | CCNCCNC(=O)CN(CC(=O)N(C)N1Cc2ccc(F)cc2C1)c1cc2cn(C)nc2cc1C [Example 245, N^2-(2,6-dimethyl-2H-indazol-5-yl)-N^2-{2-[(5-fluoro-1,3-dihydro-2H-isoindol-2-yl)(methyl)amino]-2-oxoethyl}-N^1-[2-(ethylamino)ethyl]glycinamide hydrochloride] |  | 20 to 40%
14 | CCNCCNC(=O)CN(CC(=O)N(C)N1Cc2ccc(F)cc2C1)c1cc2cn(CC(F)F)nc2cc1C [Example 254, N^2-[2-(2,2-difluoroethyl)-6-methyl-2H-indazol-5-yl]-N^2-{2-[(5-fluoro-1,3-dihydro-2H-isoindol-2-yl)(methyl)amino]-2-oxoethyl}-N^1-[2-(ethylamino)ethyl]glycinamide hydrochloride] |  | 20 to 40%
15 | CCNCCNC(=O)CN(CC(=O)N(C)N1Cc2ccc(F)cc2C1)c1cc2nn(CC(F)F)cc2cc1C [Example 268, N^2-[2-(2,2-difluoroethyl)-5-methyl-2H-indazol-6-yl]-N^2-{2-[(5-fluoro-1,3-dihydro-2H-isoindol-2-yl)(methyl)amino]-2-oxoethyl}-N^1-[2-(ethylamino)ethyl]glycinamide hydrochloride] |  | < 20%
16 | CCNCCNC(=O)CN(CC(=O)N(C)N1Cc2ccc(F)cc2C1)c1cc(-c2noc(CO)n2)ccc1C [Example 292, N^2-{2-[(5-fluoro-1,3-dihydro-2H-isoindol-2-yl)(methyl)amino]-2-oxoethyl}-N^2-{5-[5-(hydroxymethyl)-1,2,4-oxadiazol-3-yl]-2-methylphenyl}-N^1-[2-(ethylamino)ethyl]glycinamide hydrochloride] |  | 20 to 40%
17 | CCNCCNC(=O)CN(CC(=O)N(C)N1Cc2ccccc2C1)c1ccc(-c2nc(C(=O)N(C)C)cs2)cc1C [Example 304, N^2-{2-[1,3-dihydro-2H-isoindol-2-yl(methyl)amino]-2-oxoethyl}-N^2-[4-{4-[(dimethylamino)carbonyl]-1,3-thiazol-2-yl}-2-methylphenyl]-N^1-[2-(ethylamino)ethyl]glycinamide dihydrochloride] |  | ≥ 40%
18 | CCNCCNC(=O)CN(CC(=O)N(C)N1Cc2ccc(F)cc2C1)c1ccc(-c2nc(C(N)=O)cs2)cc1C [Example 308, N^2-{4-[4-(aminocarbonyl)-1,3-thiazol-2-yl]-2-methylphenyl}-N^2-{2-[(5-fluoro-1,3-dihydro-2H-isoindol-2-yl)(methyl)amino]-2-oxoethyl}-N^1-[2-(ethylamino)ethyl]glycinamide dihydrochloride] | 26 nM | 
